Patent US8530465B2, “1, 2-disubstituted amido-anthraquinone derivatives, preparation method and application thereof” (National Defense Medical Center, priority 2010, dated 2013)

Tests used:
Assay type in all cases: cell-based, human
OVCAR-4 = assay: NCI drug screen, OVCAR-4; settings: OVCAR-4 (Ovarian Cancer); 1.00E−5 Molar
Procedure: (§1) In brief, cellular protein levels were determined after 48 hours of drug exposure by sulforhodamine B colorimetry. Through the use of a time 0 cell control, the cell growth can be determined for each cell line thus allowing calculations of the 50% growth inhibitory concentration (GI50), the total growth inhibition (TGI), and the 50% lethal concentration (LC50). Comparison to plates not exposed to drug permits determination of concentration and times of exposure conferring 50% net growth inhibition (GI50), TGI, and 50% cell kill (LC50).
(§2) The screening system in United State National Cancer Institute (NCI) is consisted of 60 kinds of different human cancer cells, which can be used to assay the growth-inhibiting ability or cell toxicity of a compound against various cancer and tumor at a certain concentration.

PC-3 = assay: NCI drug screen, PC-3; settings: PC-3 (Prostate Cancer); 1.00E−5 Molar
Procedure: as §1, §2

DU145 = assay: NCI drug screen, DU145; settings: DU145 (Prostate Cancer); 1.00E−5 Molar
Procedure: as §1, §2

786-0 = assay: NCI drug screen, 786-0; settings: 786-0 (Renal Cancer); 1.00E−5 Molar
Procedure: as §1, §2

SF-539 = assay: NCI drug screen, SF-539; settings: SF-539 (CNS Cancer); 1.00E−5 Molar
Procedure: as §1, §2

MCF7 = assay: NCI drug screen, MCF7; settings: MCF7 (Breast Cancer); 1.00E−5 Molar
Procedure: as §1, §2

BT-549 = assay: NCI drug screen, BT-549; settings: BT-549 (Breast Cancer); 1.00E−5 Molar
Procedure: as §1, §2

RPMI-8226 = assay: NCI drug screen, RPMI-8226; settings: RPMI-8226 (Leukemia); 1.00E−5 Molar
Procedure: as §1, §2

H1299 = assay: MTT assay, PhTERT-SEAP (H1299); settings: H1299; SEAP and MTT analysis
Procedure, shortened: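 Cultured cells received MTT for 4 h at 37 °C, then lysis buffer overnight at 37 °C. Optical density was read at 550 nm.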

`Cc1ccc(C(=O)Nc2c(NC(=O)CCl)ccc3c2C(=O)c2ccccc2C3=O)cc1` [CC-12, 1-(4-methylbenzamido)-2-(chloroacetamido)-anthraquinone] was tested, and the “Growth Percent” value (OVCAR-4) was 34.52%, the “Growth Percent” value (PC-3) was 6.81% and the “Growth Percent” value (DU145) was −97.56%. The “Growth Percent” value (786-0) was 11.30%, the “Growth Percent” value (SF-539) was −31.42% and the “Growth Percent” value (MCF7) was −79.28%. For the same molecule, the “Growth Percent” value (BT-549) was 28.19%.

With `Cc1ccc(C(=O)Nc2ccc3c(c2NC(=O)c2ccc(C)cc2)C(=O)c2ccccc2C3=O)cc1` [CC-04, 1,2-bis-(4-methylbenzamido)-anthraquinone] the “Growth Percent” value (OVCAR-4) was 104.32%, the “Growth Percent” value (PC-3) was 82.91% and the “Growth Percent” value (DU145) was 95.93%. The “Growth Percent” value (786-0) was 116.17%, the “Growth Percent” value (SF-539) was 97.26% and the “Growth Percent” value (MCF7) was 71.71%. The “Growth Percent” value (BT-549) was 95.39% and the “Growth Percent” value (RPMI-8226) was 101.77%.

With `O=C(CCl)Nc1ccc2c(c1NC(=O)Cc1ccccc1)C(=O)c1ccccc1C2=O` [CC-23, 1-[2-(phenyl)acetylamino]-2-(chloroacetamido)-anthraquinone] the “Growth Percent” value (OVCAR-4) was 80.40%, the “Growth Percent” value (DU145) was 85.83% and the “Growth Percent” value (786-0) was 97.26%. For the same molecule, the “Growth Percent” value (SF-539) was 107.09%, the “Growth Percent” value (MCF7) was 51.00% and the “Growth Percent” value (BT-549) was 79.78%.

With `Cc1ccc(C(=O)Nc2c(NC(=O)CN3CCN(C)CC3)ccc3c2C(=O)c2ccccc2C3=O)cc1` [CC-43, 1-(4-methylbenzamido)-2-[2-(4-methylpiperazino)acetylamino]-anthraquinone] the “Growth Percent” value (OVCAR-4) was 57.11%, the “Growth Percent” value (PC-3) was 84.75% and the “Growth Percent” value (DU145) was 82.12%. For the same molecule, the “Growth Percent” value (786-0) was 11.90%, the “inhibitory activity among compounds CC-35 to CC-50” value (H1299) was “higher inhibitory activity” and the “Growth Percent” value (SF-539) was 62.68%. The “Growth Percent” value (MCF7) was 31.79% and the “Growth Percent” value (BT-549) was 91.88%.

With `Cc1ccc(C(=O)Nc2c(NC(=O)CN3CCCC3)ccc3c2C(=O)c2ccccc2C3=O)cc1` [CC-38, 1-(4-methylbenzamido)-2-[2-(tetrahydro-1H-1-pyrrolyl)acetylamino]-anthra quinone] the “Growth Percent” value (OVCAR-4) was 47.06%, the “Growth Percent” value (PC-3) was 75.00% and the “Growth Percent” value (DU145) was 91.52%. For the same molecule, the “Growth Percent” value (786-0) was 65.15%, the “Growth Percent” value (SF-539) was 81.29% and the “Growth Percent” value (MCF7) was 70.79%. For the same molecule, the “Growth Percent” value (BT-549) was 81.58%.
